Three molecules from ChEMBL document CHEMBL4354781, “Drug-resistance in Mycobacterium tuberculosis: where we stand” (2019) can be followed below.

As a reminder, the MIC is the lowest concentration found to suppress growth.

Values after ≈ are worked out from the molar mass of the structure shown.

Assay type in all cases: functional
Test [1] concerns Mycobacterium tuberculosis. Nature of the test: Antitubercular activity against Mycobacterium tuberculosis by radiometric analysis.
Test [2] concerns Mycobacterium tuberculosis. Nature of the test: Antitubercular activity against Mycobacterium tuberculosis XDR.
Test [3] has as its system Mycobacterium tuberculosis. Nature of the test: Antitubercular activity against Mycobacterium tuberculosis H37Rv ATCC 25618.
Test [4] has as its system Mycobacterium tuberculosis. Nature of the test: Antitubercular activity against Mycobacterium tuberculosis H37Rv ATCC 35837.
For test [5], the system named is Mycobacterium tuberculosis. Nature of the test: Antitubercular activity against Mycobacterium tuberculosis H37Rv ATCC 35838.
The subject of test [6] is Mycobacterium tuberculosis. Nature of the test: Antitubercular activity against Mycobacterium tuberculosis Kurono ATCC 35812.
Test [7] deals with Mycobacterium tuberculosis. Nature of the test: Antitubercular activity against Mycobacterium tuberculosis H37Rv ATCC 35820.
Test [8] relates to Mycobacterium tuberculosis. Nature of the test: Antitubercular activity against Mycobacterium tuberculosis H37Rv ATCC 35822.

As to `O=[N+]([O-])c1cn2c(n1)OC[C@@H](OCc1ccc(OC(F)(F)F)cc1)C2` [PRETOMANID], the minimum inhibitory concentration (MIC) in test [1] is 0.015 to 0.25 µg/mL (≈ 0.0418 to 0.696 µM).

Turning to `CC(=O)NC[C@H]1CN(c2ccc(N3CCOCC3)c(F)c2)C(=O)O1` [LINEZOLID], in test [2], the minimum inhibitory concentration (MIC) fell in the range of 0.125 to 0.5 µg/mL (≈ 0.371 to 1.48 µM).

With `C[C@]1(COc2ccc(N3CCC(Oc4ccc(OC(F)(F)F)cc4)CC3)cc2)Cn2cc([N+](=O)[O-])nc2O1` [DELAMANID], the MIC in test [3], in test [4], in test [5], in test [6], in test [7] and in test [8] was 0.006 to 0.024 µg/mL (≈ 0.0112 to 0.0449 µM) in each case.
